According to patent EP2179732A1, “PHARMACEUTICAL COMPOSITION COMBINING AN ENZYME HMG-COA REDUCTASE INHIBITING AGENT AND A GASTROINTESTINAL LIPASE ENZYME INHIBITING AGENT” (Espinosa Abdala, Leopoldo de Jesús, priority 2007, dated 2008):
Marks after values point to notes of the source that are not given here.

Experiments:
[1] = tested on: obese patients with hypercholesterolemia and hypertriglyceridemia; assay: Clinical comparative study: blood pressure; format: in vivo
Procedure: (§1) Methods. Selected patients were obese with a Body Mass Index (IMC) >30 Kg/m^2; with border (Total cholesterol 200-240 mg./dL.) or severe (Total cholesterol ≥ 240 mg./dL.) hypercholesterolemia; with hypertriglyceridemia (≥ 150 mg./dL.); normal pressure patients (systolic pressure <140 mm Hg and diastolic pressure < 90 mm Hg).
(§2) Patients were >50 years old. Patients were randomized for receiving in Group 1: Orlistat 1 capsule (120 mg.) in main meal.
(§3) Compliance with treatment was assessed by counting capsules and with follow-up visits every 3 months. Total cholesterol, LDL cholesterol, HDL Cholesterol, Triglycerides in serum and blood pressure during baseline visit were assessed, and at 6 months and 12 months of treatment. Waist index was assessed.

[2] = tested on: obese patients with hypercholesterolemia and hypertriglyceridemia; assay: Clinical comparative study: body weight (body mass index, waist circumference reduction, weight loss); format: in vivo
Procedure: as §1, §2, §3

[3] = tested on: obese patients with hypercholesterolemia and hypertriglyceridemia; conditions: human, in vivo
Procedure: as §1, §2, §3

[4] = tested on: obese patients with hypercholesterolemia and hypertriglyceridemia; assay: Clinical comparative study of Orlistat, Atorvastatin and combination: lipid profile; format: in vivo; conditions: for C-HDL Baseline change at 1 year / C-LDL Baseline change at 1 year / CT Baseline change at 1 year / TG Baseline change at 1 year: 1 Year versus baseline; for C-HDL / C-LDL / CT (Total Cholesterol) / TG (Triglycerides): average (SD)
Procedure: as §1, §2, §3

[5] = dose-response study; cited from earlier work
[6] = cited from earlier work
[7] = dosage of 120 mg once a day; cited from earlier work
plasma proteins = conditions: in vitro; lipoproteins and albumin main attachment proteins; cited from earlier work

CC(C)c1c(C(=O)Nc2ccccc2)c(-c2ccccc2)c(-c2ccc(F)cc2)n1CC[C@@H](O)C[C@@H](O)CC(=O)O [Atorvastatin]
Diastolic Baseline changes ([1]; 1 Year versus baseline): -7.0* %
Systolic Baseline changes ([1]; 1 Year versus baseline): -6.0* %
Diastolic blood pressure [PAD] ([1]; 1 year): 83 (3) mm. Hg
Systolic blood pressure [PAS] ([1]; 1 year): 127 (4) mm. Hg
Diastolic blood pressure [PAD] ([1]; 6 Months): 85 (4) mm. Hg
Systolic blood pressure [PAS] ([1]; 6 Months): 130 (4) mm. Hg
Diastolic Baseline changes ([1]; 6 Months versus baseline): -5.0%
Systolic Baseline changes ([1]; 6 Months versus baseline): -3.0%
IMC Baseline changes ([2]; 1 Year versus baseline): -4.1* %
PP Baseline changes ([2]; 1 Year versus baseline): -4.6* %
RCC Baseline changes ([2]; 1 Year versus baseline): -3.7* %
PP (Weight loss) ([2]; 1 year): -7.3 (1.2)
RCC (Waist circumference reduction) ([2]; 1 year): -3.1 (1.1) cm.
PP (Weight loss) ([2]; 6 Months): -3.7 (1.1)
RCC (Waist circumference reduction) ([2]; 6 Months): -1.5 (0.7) cm.
IMC Baseline changes ([2]; 6 Months versus baseline): -2.3%
PP Baseline changes ([2]; 6 Months versus baseline): -3.7%
RCC Baseline changes ([2]; 6 Months versus baseline): -1.5%
alterations as to serum transaminases or in creatinphosphokinase activity [3]: did not show alterations
C-HDL Baseline change at 1 year [4]: 12.3** %
C-LDL Baseline change at 1 year [4]: -33.0** %
CT Baseline change at 1 year [4]: -27.0** %
TG Baseline change at 1 year [4]: -25.0* %
C-HDL ([4]; 1 year of treatment): 46 (5) mg./dL.
C-LDL ([4]; 1 year of treatment): 104 (23) mg./dL.
CT (Total Cholesterol) ([4]; 1 year of treatment): 184 (23) mg./dL.
TG (Triglycerides) ([4]; 1 year of treatment): 125 (28) mg./dL.
C-HDL ([4]; 6 months of treatment): 44 (5) mg./dL.
C-LDL ([4]; 6 months of treatment): 151 (22)* mg./dL.
CT (Total Cholesterol) ([4]; 6 months of treatment): 191 (21)* mg./dL.
TG (Triglycerides) ([4]; 6 months of treatment): 126 (29) mg./dL.
reduce LDL cholesterol [5]: 41-61%
reduce apolipoprotein B [5]: 34-50%
reduce total cholesterol [5]: 30-46%
reduce triglycerides [5]: 14-33%

CCCCCCCCCCC[C@@H](C[C@@H]1OC(=O)[C@H]1CCCCCC)OC(=O)[C@H](CC(C)C)NC=O [Orlistat]
Diastolic Baseline changes ([1]; 1 Year versus baseline): -8.0* %
Systolic Baseline changes ([1]; 1 Year versus baseline): -16.0* %
Diastolic blood pressure [PAD] ([1]; 1 year): 82 (3) mm. Hg
Systolic blood pressure [PAS] ([1]; 1 year): 128 (3) mm. Hg
Diastolic blood pressure [PAD] ([1]; 6 Months): 82 (3) mm. Hg
Systolic blood pressure [PAS] ([1]; 6 Months): 130 (3) mm. Hg
Diastolic Baseline changes ([1]; 6 Months versus baseline): -8.0%
Systolic Baseline changes ([1]; 6 Months versus baseline): -6.0%
intact Orlistat concentrations ([6]; at 8 hours after oral administration, not detectable): < 5 ng/mL
two main metabolites M1 and M3 as share of total plasma concentration ([6]; of the minimal systemically absorbed fraction of the dose): about 42%
IMC Baseline changes ([2]; 1 Year versus baseline): -6.2** %
PP Baseline changes ([2]; 1 Year versus baseline): -4.6** %
RCC Baseline changes ([2]; 1 Year versus baseline): -4.6* %
IMC (Body Mass Index) ([2]; 1 year): 27.3 (1.3) Kg./M^2
PP (Weight loss) ([2]; 1 year): -6.6 (1.5)
RCC (Waist circumference reduction) ([2]; 1 year): -4.1 (1.1) cm.
IMC (Body Mass Index) ([2]; 6 Months): 30.3 (1.4) Kg./M^2
PP (Weight loss) ([2]; 6 Months): -4.0 (1.2)
RCC (Waist circumference reduction) ([2]; 6 Months): -2.1 (0.7) cm.
IMC Baseline changes ([2]; 6 Months versus baseline): -3.2* %
PP Baseline changes ([2]; 6 Months versus baseline): -4.* %
RCC Baseline changes ([2]; 6 Months versus baseline): -2.1* %
adverse events [3]: Two patients from Group 1 showed adverse gastrointestinal events (fecal urgency)
C-HDL Baseline change at 1 year [4]: 4.8%
C-LDL Baseline change at 1 year [4]: -17.0* %
CT Baseline change at 1 year [4]: -13.0* %
TG Baseline change at 1 year [4]: -30-3** %
C-HDL ([4]; 1 year of treatment): 45 (6) mg./dL.
C-LDL ([4]; 1 year of treatment): 152 (23) mg./dL.
CT (Total Cholesterol) ([4]; 1 year of treatment): 211 (25) mg./dL.
TG (Triglycerides) ([4]; 1 year of treatment): 100 (22) mg./dL.
C-HDL ([4]; 6 months of treatment): 44 (5) mg./dL.
C-LDL ([4]; 6 months of treatment): 163 (21) mg./dL.
CT (Total Cholesterol) ([4]; 6 months of treatment): 232 (22) mg./dL.
TG (Triglycerides) ([4]; 6 months of treatment): 120 (24) mg./dL.
maximum inhibition of fatty absorption [7]: 30%
attached to plasma proteins (plasma proteins): > 99%
